Experimental data published in paper PMC12706794, “Identification and Characterization of a Small-Molecule Inhibitor of the Pseudomonas aeruginosa SOS Response” (ACS Infectious Diseases, 2025).
Converted amounts (≈) assume the structure as drawn.

B1: SOS-box dsDNA (AT-repeat) (dsDNA)
DNA 1: GATGCCTGCGGATACTGTATATATATACAGTATCAATTCTGGCT
DNA 2: AGCCAGAATTGATACTGTATATATATACAGTATCCGCAGGCATC

Legend:
[1] = target: T1, RecAPa*-induced FlAsH-LexAPa CTD autoproteolysis (Pseudomonas aeruginosa, UniProt P37452); assay: FP-based RecA*-induced LexA autoproteolysis in vitro assay; assay type: biochemical, P. aeruginosa; conditions: highest concentration tested, range 0.2 to 2 mM
T1 construct: 6His-SUMO (N, cleaved yes); made in house; host or cells: E. coli BL21(DE3)
Description: A custom-made library of 318 small molecules (MW < 1000 Da) has been screened at two different concentrations (25 μg/mL and 125 μg/mL, corresponding to molar concentrations of 30–170 μM and 150–850 μM, respectively) on the P. aeruginosa SOS system by a previously validated fluorescence polμarization (FP)-based RecA*-induced LexA autoproteolysis in vitro assay. , 1 μM FlAsH-LexAPa ^CTD and 1 μM preactivated RecA*Pa were incubated with the screened chemical fragments for 1 h at 37 °C before measuring FP.
Then, the FP-based LexA autoproteolysis assay was repeated on the two hits, monitoring the full kinetics of LexA cleavage over a 1 h incubation and exploring a wide range of drug concentrations (10–1000 μM).
A custom-made library of 318 chemical fragments (25 mg/mL stock solutions in DMSO), provided by P. Kavaliauskas (Weill Cornell Medicine of Cornell University) was screened in vitro for their ability to inhibit RecAPa*-mediated LexAPa autoproteolysis by a Fluorescence Polarization (FP)-based assay. , Twenty microliter reactions were set up in Nunc 384-Well Black microplates, and final reaction mixtures included 1 μM FlAsH-LexAPa ^CTD, the compounds (5% v/v DMSO in all the samples, including the controls devoid of compounds), and 1 μM RecAPa* (FP Buffer in the negative control; 30 mM Hepes, 150 mM NaCl, pH 7.1). The initial screening was performed with two dilutions of the compounds (25 and 125 μg/mL). The FP signal was measured after a 1 h incubation at 37 °C by an EnVision MultiMode Plate Reader (PerkinElmer) equipped with opportune FP filters and mirrors. To obtain LexAPa ^CTD autoproteolysis percent inhibition, FP data were scaled from 0% (corresponding to the positive control sample) to 100% (negative control).
Compounds displaying an inhibition of at least 50% at the highest concentration and a rather consistent increase in activity at the two tested concentrations were selected as the hits.
The same FP assay was carried out on serial dilutions of selected compounds to determine the dose–response relationship. To evaluate the effect of a reducing environment, 2 mM Tris(2-carboxyethyl)-phosphine (TCEP) was added to the reaction mixtures. The FP signal of FlAsH-LexAPa ^CTD alone was detected for 5 min before adding the compounds. The system was monitored for an additional 5 min in the presence of the tested compounds in order to observe potential aggregation events. Then, RecAPa* was added, and the autoproteolysis reaction was followed for 1 h at 37 °C (1 reading per minute). FlAsH-LexAPa ^CTD autoproteolysis percent inhibition was calculated as mentioned above and plotted as a function of compound concentration. Experimental data fitting was performed with GraphPad Prism 8 to obtain the absolute IC50.

P. aeruginosa PAO1 = assay: Antimicrobial susceptibility testing (MIC); assay type: cell-based, P. aeruginosa PAO1 (ATCC 15692); conditions: for MIC: Pseudomonas aeruginosa, PAO1
Description: The MIC of compound A12 and antibiotics was determined by using the Clinical Laboratory Standard Institute (CLSI) recommendations with minor modifications. […] Microplates were incubated in a humidified incubator for 18 h at 37 °C, and the bacterial growth was quantified by OD600. According to CLSI, MICs are defined as the lowest concentrations of antimicrobial agents that prevent visible growth.

[2] = test system: P. aeruginosa PAO1 on THP-1-derived macrophages; assay: P. aeruginosa PAO1 colonization of THP-1-derived macrophages; assay type: cell-based; conditions: single agent: ciprofloxacin 0.5 μg/mL or A12 100 μg/mL; 3 h infection
Description: THP-1-derived macrophages were generated from THP-1 monocytes as previously described, with minor modifications. , Briefly, THP-1 monocytes were washed three times with antibiotic-free RPMI 1640 medium and resuspended in complete antibiotic-free RPMI 1640 supplemented with 300 nM phorbol 12-myristate 13-acetate (PMA). Cells were incubated for 24 h, followed by a 48 h rest period in PMA-free RPMI 1640 prior to use in subsequent experiments. […] PMA-differentiated THP-1-derived macrophages were similarly trypsinized and seeded into 24-well plates at 5 × 10^5 cells/well in complete, antibiotic-free RPMI supplemented with FBS. Cells were incubated overnight to allow for attachment. Immediately prior to infection, the medium was aspirated, and cells were washed three times with Dulbecco’s phosphate-buffered saline. […] Infection was synchronized by centrifuging plates at 1000g for 1 min. […] Following the infection period, the medium was aspirated, and cells were washed three times with DPBS to remove unattached bacteria and residual test compounds. […] In both cases, the resulting lysates were serially diluted in DPBS and plated on tryptic soy agar plates. Plates were incubated at 37 °C for 24 h, after which colonies were enumerated. Bacterial burden was expressed as the CFU per well.

[3] = target: LexAPa S125A (uncleavable mutant) (Pseudomonas aeruginosa ATCC 27853, UniProt P37452 1-204, S125A); assay: EMSA; no A12, 10% DMSO; 8 uM LexA, 1 uM DNA; conditions: protein: recombinant; chain copies: 2; blunt
[4] = A12 (32 μg/mL) (+), in combination

Molecule	MIC on P. aeruginosa PAO1 (P. aeruginosa PAO1; [4])	MIC (P. aeruginosa PAO1; A12 (32 μg/mL) (−))	further results
CC(CC(=O)O)Nc1ccccc1CCc1ccccc1NC(C)CC(=O)O (stereo not shown) [BG-194, 3,3′-((ethane-1,2-diylbis(2,1-phenylene))bis(azanediyl))dibutyric acid]	–	–	LexAPa autocleavage percent inhibition of A12 derivatives [1]: did not display any inhibitory activity
CO/N=C(\C(=O)N[C@@H]1C(=O)N2C(C(=O)O)=C(CSc3nc(=O)c(=O)[nH]n3C)CS[C@H]12)c1csc(N)n1 [Ceftriaxone]	8 µg/mL	8 µg/mL (≈ 14.4 µM)	–
COc1c(N2C[C@@H]3CCCN[C@@H]3C2)c(F)cc2c(=O)c(C(=O)O)cn(C3CC3)c12 [Moxifloxacin]	–	0.0312 µg/mL (≈ 0.0777 µM)	–
O=C(O)c1cn(C2CC2)c2cc(N3CCNCC3)c(F)cc2c1=O [Ciprofloxacin, reference compound]	–	–	Total (adherent + intracellular) burden of PAO1 on THP-1-derived macrophages [2]: diminished
C[C@H]1COc2c(N3CCN(C)CC3)c(F)cc3c(=O)c(C(=O)O)cn1c23 [Levofloxacin]	0.125 µg/mL	0.0625 µg/mL (≈ 0.173 µM)	–
Gentamycin	2 µg/mL	–	MIC on P. aeruginosa PAO1 (P. aeruginosa PAO1; A12 (32 μg/mL) (−)): 2 µg/mL
CN(C)[C@@H]1C(O)=C(C(N)=O)C(=O)[C@@]2(O)C(O)=C3C(=O)c4c(O)cccc4[C@@](C)(O)[C@H]3C[C@@H]12 [Tetracycline]	4 µg/mL	4 µg/mL (≈ 9 µM)	–
O=C(O)CCNc1ccccc1CCc1ccccc1NCCC(=O)O [BG-191, 3,3′-((ethane-1,2-diylbis(2,1-phenylene))bis(azanediyl))dipropionic acid]	–	–	LexAPa autocleavage percent inhibition of A12 derivatives [1]: 20%
B1	–	–	binding result [3]: binds
